Measured values published in article PMC8636514, “Therapeutic potential of TRPM8 antagonists in prostate cancer” (Scientific Reports, 2021).
Read-outs that look alike come from different tables or passages of the source.

Columns and labels:
[1] = system: LNCaP cells; experiment: DNA synthesis (BrdU incorporation) in LNCaP cells; format: cell-based, human; conditions: 10 nM R1881, compound 1 μM
Procedure: […] Cells were fixed, permeabilized, washed and the BrdU incorporation was analysed as reported. Nuclei were stained with Hoechst and cells on coverslips were scored by IF microscopy, using a DMLB Leica (Leica) fluorescent microscope, equipped with HCX PL Apo 63 × oil objective. Different fields from each coverslip were analyzed and BrdU incorporation was calculated by the formula: percentage of BrdU-positive cells = (No. of BrdU-positive cells/No. of total cells) × 100. Data in the graphs derive from at least 1000 scored cells for each coverslip. Representative images were captured using DC480 camera (Leica) and acquired using Leica Suite software. They are representative of three different experiments.

[2] = molecular target: T1, human TRPM8 (Homo sapiens, UniProt Q7Z2W7); experiment: Patch-clamp assay on TRPM8 channels (HEK-293/TRPM8 cells, menthol-evoked currents); format: cell-based; conditions: for inhibitory effect on menthol-evoked TRPM8 currents: dependence on concentration
T1 construct: expressed in transfected cells; host or cells: HEK-293/TRPM8 exon1 K3 cells
T1 sequence (Q7Z2W7 whole entry): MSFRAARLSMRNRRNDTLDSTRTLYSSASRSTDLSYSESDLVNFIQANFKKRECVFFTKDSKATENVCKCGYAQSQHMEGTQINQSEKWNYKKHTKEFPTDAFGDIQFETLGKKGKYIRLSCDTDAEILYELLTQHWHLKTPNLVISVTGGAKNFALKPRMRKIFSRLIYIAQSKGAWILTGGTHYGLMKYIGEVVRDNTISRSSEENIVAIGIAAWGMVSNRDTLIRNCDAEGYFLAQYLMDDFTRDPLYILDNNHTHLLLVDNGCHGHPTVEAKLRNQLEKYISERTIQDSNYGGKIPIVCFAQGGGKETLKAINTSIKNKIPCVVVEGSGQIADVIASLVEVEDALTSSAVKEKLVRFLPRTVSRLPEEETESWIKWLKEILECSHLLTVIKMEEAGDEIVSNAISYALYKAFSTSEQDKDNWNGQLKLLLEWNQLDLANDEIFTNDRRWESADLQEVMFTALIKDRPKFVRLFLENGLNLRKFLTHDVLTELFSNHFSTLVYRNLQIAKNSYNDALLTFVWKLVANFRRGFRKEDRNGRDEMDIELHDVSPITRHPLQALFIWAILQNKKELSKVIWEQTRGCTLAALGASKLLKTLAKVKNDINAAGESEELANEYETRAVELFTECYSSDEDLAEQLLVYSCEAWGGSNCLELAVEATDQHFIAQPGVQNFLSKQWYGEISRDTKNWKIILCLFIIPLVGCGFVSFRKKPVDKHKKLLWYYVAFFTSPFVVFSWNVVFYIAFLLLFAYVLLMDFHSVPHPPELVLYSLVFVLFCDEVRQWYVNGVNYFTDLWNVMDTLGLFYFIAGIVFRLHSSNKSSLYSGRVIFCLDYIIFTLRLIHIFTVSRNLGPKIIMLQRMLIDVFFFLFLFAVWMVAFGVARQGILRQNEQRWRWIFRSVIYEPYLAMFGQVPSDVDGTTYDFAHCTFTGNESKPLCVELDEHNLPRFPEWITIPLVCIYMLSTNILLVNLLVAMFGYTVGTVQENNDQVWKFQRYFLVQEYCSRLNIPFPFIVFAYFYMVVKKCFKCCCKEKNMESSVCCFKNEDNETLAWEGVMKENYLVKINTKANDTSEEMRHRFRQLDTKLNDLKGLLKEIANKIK
Procedure: Patch clamp experiments for compounds 4, 5 and 9 were done as described. HEK-293/TRPM8 exon 1 cells were seeded 3 or 4 days before experiment at a concentration of 4 and 2.5 million cells, respectively, onto a T225 flask. Before each experiment, cells were washed two times with D-PBS without Ca^2+/Mg^2+ (Euroclone, Milan, Italy) and trypsinized with trypsin−EDTA (Sigma-Aldrich; diluted 1/10). Cells were suspended in 25 mL of EX-CELL ACF CHO medium (Sigma-Aldrich, Milan, Italy), 0.625 mL of HEPES (Lonza, Walkersville, USA), 0.25 mL of 100 × penicillin/streptomycin (Lonza, Walkersville, USA), 0.1 mL of soybean trypsin inhibitor 10 mg/mL (Sigma-Aldrich), and placed on the automated patch-clamp platform (QPatch 16X, Sophion Bioscience, Ballerup, Denmark). A stock solution of L-Menthol (1 M, 100% DMSO), used as reference agonist, was freshly prepared. A diluted stock of 300 mM was prepared from the 1 M stock in 100% DMSO, and a final dilution was obtained using the extracellular solution to give a working concentration of 300 μM (1:1000, 0.1% final DMSO concentration). Stock solutions of the testing compounds (10 mM; 100% DMSO; stored at − 20 °C) were freshly prepared, as well. Further dilution of these stock solutions to a final concentration of 300 μM was performed from the 10 mM stock in 100% DMSO, and the working dilutions were performed just before the experiments using the extracellular solution containing 300 μM menthol. The highest concentration tested was 300 nM, with serial dilutions (1:10). DMSO was balanced to keep it constant throughout all the solutions in the same experiment (0.2% final DMSO concentration). Standard whole-cell voltage clamp experiments were performed at room temperature using the multihole technology. For the voltage clamp experiments on human TRPM8, data were sampled at 2 kHz. After establishment of the seal and the passage in the whole cell configuration, the cells were subjected to a voltage ramp (20 ms step at − 60 mV; 100 ms ramp − 60/ + 100 mV; 20 ms step at + 100 mV; return to − 60 mV) every 4 s. The antagonistic effect on human TRPM8 current of target compounds was evaluated after application of the agonist (menthol, 300 μM), in the absence or presence of increasing concentrations of the compound under investigation. Outward current evoked by the voltage ramp, measured in the step at + 100 mV were measured. The intracellular solution contained (mM) 135 CsCl, 10 BAPTA, 10 HEPES, 4 Na2ATP (pH 7.2 with CsOH). The extracellular solution contained (mM) 145 NaCl, 4 KCl, 1 MgCl2, 2 CaCl2, 10 HEPES, 10 glucose (pH 7.4 with NaOH). TRPM8 modulation by final compounds 3 and 6 has been previously determined by patch clamp measurements[29],[30].

[3] = molecular target: T1, human TRPM8; conditions: maximal currents at 5 µM compared to L-menthol 100 µM; cited from earlier work
[4] = system: C4-2B cells; experiment: DNA synthesis (BrdU incorporation) in C4-2B cells; format: cell-based, human; conditions: cycling cells, 18 h, 10 μM
Procedure: Cells on coverslips were pulsed in vivo with BrdU (Sigma-Aldrich; at 100 μM, final concentration) and left unchallenged or challenged with 10 nM R1881 for 18 h, in the absence or presence of the indicated compounds. Cells were fixed, permeabilized, washed and the BrdU incorporation was analysed as reported. Nuclei were stained with Hoechst and cells on coverslips were scored by IF microscopy, using a DMLB Leica (Leica) fluorescent microscope, equipped with HCX PL Apo 63 × oil objective. Different fields from each coverslip were analyzed and BrdU incorporation was calculated by the formula: percentage of BrdU-positive cells = (No. of BrdU-positive cells/No. of total cells) × 100. Data in the graphs derive from at least 1000 scored cells for each coverslip. Representative images were captured using DC480 camera (Leica) and acquired using Leica Suite software. They are representative of three different experiments.

[5] = system: AR; experiment: Western blot of AR in LNCaP lysate proteins; format: cell-based, human; conditions: Fig 6e, R1881 + enz 10 μM
Description: (§1) All performed as reported. The mouse monoclonal anti-AR (441; Santa Cruz) antibody was used in Co-Ip or WB approaches. TRPM8 was detected using the rabbit polyclonal anti-TRPM8 (NBP1-97311; Novus Biological). […] The rabbit polyclonal anti-ERK (C-14; Santa Cruz), antibody was used to detect total ERK. FAK and P-Tyr397 FAK were detected using the mouse monoclonal anti-FAK (Clone 77/610077 BD Transduction Laboratories) or anti P-Tyr397 FAK (Clone 14/611722; BD Transduction Laboratories) antibodies, respectively. P-Tyr118 paxillin and total paxillin were detected using the rabbit polyclonal anti-P-Y118 (#2541, Cell Signaling) or the mouse monoclonal anti-paxillin (clone 349; BD Biosciences) antibodies, respectively. […] P-Tyr 416 Src and Src were detected using the rabbit monoclonal anti P-Tyr 416 Src (#6943; Cell Signaling) or the mouse monoclonal anti Src (Calbiochem) antibodies, respectively. ERα and ERβ were detected using the rabbit polyclonal anti-ERα (543; Santa Cruz) or anti-ERβ (Upstate Biotechnology, U.S.A.) antibodies. Cyclin D1, p27 and Cdk4 were stained using the mouse monoclonal anti-cyclin D1 (clone AM29; from Zymed Laboratories Inc.), the rabbit polyclonal anti-p27 (C-19; Santa Cruz) or anti Cdk-4 (c-22; Santa Cruz) antibodies, respectively. The mouse monoclonal anti-tubulin (Sigma-Aldrich) antibody was used to detect tubulin. The ECL system (GE Healthcare) was employed to reveal immune-reactive proteins. Densitometric analysis of WB was performed by using Image J Software (https://imagej.nih.gov/ij).

[6] = molecular target: T2, AR/TRPM8 complex (Homo sapiens, UniProt Q7Z2W7); experiment: Co-IP of AR with TRPM8 in LNCaP cells; format: cell-based; conditions: for AR, Average (n=3) / TRPM8, Average (n=3): Fig 6e, R1881 + enz 10 μM
T2 construct: We here dissected an endogenous non-genomic mechanism of the TRPM8 channel regulation by androgens in PC cells; endogenous in cells; host or cells: LNCaP cells
T2 sequence (Q7Z2W7 whole entry, one chain of several): as the sequence (Q7Z2W7 whole entry) above
Description: as §1

[7] = system: PSA; experiment: PSA secretion (ELISA) from LNCaP cells; format: cell-based, human; conditions: enzalutamide 10 μM
Procedure: It was done in culture medium using the PSA ELISA kit (Abnova-Taiwan Corporation, Taiwan), according to the manufacturer’s instructions. Released PSA was analyzed at 450 nm using the EnSpire Multimode Plate Reader (Perkin-Elmer, U.S.A.).

[8] = system: TRPM8; experiment: Western blot of TRPM8 in LNCaP lysate proteins; format: cell-based, human; conditions: Fig 6e, R1881 + enz 10 μM
Description: as §1

[9] = system: FAK, paxillin, ERK, RSK and Src tyrosine kinase; experiment: Western blot of androgen-induced rapid actions in LNCaP cells (Fig. 6c); format: cell-based, human; conditions: 10 nM R1881, 10 min, enzalutamide 10 μM
Description: as §1

[10] = system: LNCaP cells; set-up: method as in PMID 33288740; conditions: cited from earlier work
[11] = fourth group of list (probably IP anti-AR)

**Q.** For `Cn1cc(CNCCc2ccc(-c3ccccc3)cc2)c2cc(CNc3ccc(F)cc3)ccc21` [Compound 9], which “inhibitory effect on R1881-stimulated DNA synthesis, compared with 3 and 5” value [1] is on record?
**A.** stronger

**Q.** And the IC50 ([2]; TRPM8 antagonist, read-out: IC50)?
**A.** 5000 nM

**Q.** And the “inhibitory effect on menthol-evoked TRPM8 currents” value [2]?
**A.** concentration-dependent

**Q.** Which “% Efficacy” value [3] does the source give for `c1ccc(Oc2ccc(CNCCc3c[nH]c4ccccc34)cc2)cc1` [Compound 3] here?
**A.** 100.0 ±8.4%

**Q.** With `CNC(=O)c1ccc(N2C(=S)N(c3ccc(C#N)c(C(F)(F)F)c3)C(=O)C2(C)C)cc1F` [Enzalutamide] as the compound, how does the BrdU incorporation [4] read?
**A.** did not observe any effect

**Q.** And the “AR, Average (n=3)” value [5]?
**A.** 1,1

**Q.** What about the “androgen-induced AR/TRPM8 complex assembly” value ([6]; 10 nM R1881, 10 min, enzalutamide 10 μM) of the same compound?
**A.** perturbed

**Q.** What about the “AR, Average (n=3)” value [6, 11] of the same compound?
**A.** 1,1

**Q.** And the “TRPM8, Average (n=3)” value [6, 11]?
**A.** 0,3

**Q.** What about the “AR, Average (n=3)” value ([6]; second group of list) of the same compound?
**A.** 0,1

**Q.** And the “TRPM8, Average (n=3)” value ([6]; second group of list)?
**A.** 0,1

**Q.** And the “AR, Average (n=3)” value ([6]; third group of list)?
**A.** 1

**Q.** And the “TRPM8, Average (n=3)” value ([6]; third group of list)?
**A.** 0

**Q.** And the “androgen-induced PSA secretion” value ([7]; R1881, 48 h)?
**A.** strongly inhibited

**Q.** And the “PSA secretion when used alone” value ([7]; no R1881)?
**A.** Neither the two TRPM8 antagonists, nor enzalutamide did modify such response

**Q.** What about the “TRPM8, Average (n=3)” value [8] of the same compound?
**A.** 1,1

**Q.** And the “androgen-elicited activation of FAK, paxillin, ERK, RSK and Src” value [9]?
**A.** impaired at similar extent

**Q.** For `COc1ccc(NC(=O)[C@@H]2C[C@H](C)CC[C@H]2C(C)C)cc1` [WS-12], which “viability of LNCaP cells” value [10] is on record?
**A.** slightly modify

**Q.** Which results are given for `O=[N+]([O-])c1ccc(Sc2[nH]c3ccccc3c2CCNCc2ccc(Oc3ccccc3)cc2)c([N+](=O)[O-])c1` [Compound 5]?
**A.** IC50 ([2]; 300 µM menthol-evoked currents, read-out: Potency IC50): 340 ± 26 nM; IC50 ([2]; TRPM8 antagonist, menthol-evoked currents, one range for both compounds, read-out: IC50): 204 to 340 nM; inhibitory effect on menthol-evoked TRPM8 currents [2]: concentration-dependent
